Source: patent US9993002B2, “1,2,3-thiadiazol-5yl-urea derivatives, use thereof for regulating plant senescence and preparations containing these derivatives” (USTAV EXPERIMENTALNI BOTANIKY AV CR, V.V.I., priority 2014, dated 2018)
Marks after values point to notes of the source that are not given here.

Experiments:
Type in all cases: in vivo
[1] = tested on: spring barley (Hordeum vulgare), malting variety Bojos; assay: Field experiment, spring barley, foliar spraying; details: 5 μM foliar; for Grain yield: control 7.653; for Number of grains/spike: control 23.49; for Thousand grain weight: control 45.85; for Number of tillers: control 4.61; for Number of spikes/m^2: control 700.4
Source text: The initial field experiments were done with spring barley (Hordeum vulgare), malting variety Bojos in field plots of University of Palacky in Olomouc. All field experiments were done according to criteria for Good Experimental Practices. Six repetitions (each 10 m^2) were used per one variant, sowing rate was 3.5 millions of germinated grains per hectare. Field trials were not treated by growth regulators and fungicides, except of applied compounds. Compounds 1-(2-methoxy-ethyl)-3-[1,2,3]thiadiazol-5-yl-urea and 1-(2-chloro-ethyl)-3-[1,2,3]thiadiazol-5-yl-urea were applied once in indicated time (Tillering, BBCH 23-25 or Inflorescence emergence, BBCH 51-53) by foliar spraying in concentration 5 μM. For each variant at least 50 plants were used to obtain morphology parameters. Statistical evaluation was executed in stat. program PAST v. 2.17c.

[2] = tested on: spring barley (Hordeum vulgare), malting variety Bojos; assay: Field experiment, spring barley, pre-soaked seeds; details: seeds pre-soaked in 50 μM solution
Experimental: Seeds of spring barley (Hordeum vulgare), malting variety Bojos were pre-soaked in 50 μM solution of compound 6 or 65 and sown as described in example 15. For each variant at least 50 plants were used to obtain morphology parameters. Statistical evaluation was executed in stat. program PAST v. 2.17c.

[3] = tested on: winter wheat, Triticum aestivum cv. Hereward; assay: Drought stress tolerance of wheat plants; details: 100 nM aqueous solution, drought stress last 20 days, 30 days after planting; untreated 37%
Experimental: To investigate the effect of 1-(2-methoxy-ethyl)-3-[1,2,3]thiadiazol-5-yl-urea and 1-furfuryl-[1,2,3]thiadiazol-5-yl-urea to drought-induced senescence, seeds of winter wheat, Triticum aestivum cv. Hereward, were washed under running water for 24 hours and then sown into trays with perlite (30×40 cm) and soaked by water, or 100 nM aqueous solution of 1-(2-methoxy-ethyl)-3-[1,2,3]thiadiazol-5-yl-urea or 1-furfuryl-[1,2,3]thiadiazol-5-yl-urea. The trays were placed in a growth chamber at 25° C. with 8/16 hours light/dark cycle at intensity […]. Plants were under drought stress last 20 days. 30 Days after planting it was counted how many plants survived on individual trays.

[4] = tested on: winter wheat, Triticum aestivum cv. Hereward; assay: Saline stress-induced senescence of wheat plants; details: 100 nM, 75 mM NaCl, assessed 25 and 30 days after planting
Experimental: To investigate the effect of compound 6 to saline-induced senescence seeds of winter wheat, Triticum aestivum cv. Hereward, were washed under running water for 24 hours and then sown to 1 L containers on perlite soaked with water or 100 nM water solution of […]. Containers were placed in the growth chamber at 25° C. with a 16/8 h light period at 50 μmol·m^−2·s^−1. Seven days after planting the plants were treated by 75 mM NaCl solution. Plants were allowed to grow and 25 and 30 days after planting the result was assessed.

[5] = tested on: winter oilseed rape; assay: Field experiment, winter oilseed rape, foliar spray; details: 25 μM foliar spray, BBCH 50
Experimental: (§1) All field experiments were done according to criteria for Good Experimental Practices. Six repetitions (10 m^2 each) were used per one variant. Field trials were not treated by growth regulators and fungicides, except of applied compound 1-furfuryl-[1,2,3]thiadiazol-5-yl-urea. N-furfuryl-N′-1,2,3-thiadiazol-5-yl-urea was applied once at the precise time (extension growth BBCH 50), by foliar spray at a concentration of 25 μM. For each variant at least 50 plants were used to obtain morphology parameters. Statistical evaluation was executed in stat. program PAST v. 2.17c.

[6] = tested on: spring barley; assay: Field experiments, spring barley, years 2014 and 2015, foliar spray
Experimental: as §1
All field experiments were done according to criteria for Good Experimental Practices as described in example 17. N-furfuryl-N′-1,2,3-thiadiazol-5-yl-urea was applied once at the precise time (extension growth BBCH 50), by foliar spray at a concentration of 25 μM in a year 2014 and at a concentration of 5 μM in a year 2015. For each variant at least 50 plants were used to obtain morphology parameters. Statistical evaluation was executed in stat. program PAST v. 2.17c.

[7] = Inflorescence emergence, BBCH 51-53
[8] = Tillering, BBCH 23-25, listed as compound 6

| SMILES | Grain yield, % of control [1, 7] [%] | Number of grains/spike, % of control [1, 7] [%] | Thousand grain weight, % of control [1, 7] [%] | Grain yield [1, 7] [t/ha] | Number of grains/spike [1, 7] | Thousand grain weight [1, 7] [g] | Grain yield, % of control ([1]; Tillering, BBCH 23-25) [%] | Number of grains/spike, % of control ([1]; Tillering, BBCH 23-25) [%] | Number of spikes/m^2, % of control ([1]; Tillering, BBCH 23-25) | Number of tillers, % of control ([1]; Tillering, BBCH 23-25) | Thousand grain weight, % of control ([1]; Tillering, BBCH 23-25) [%] | Number of tillers ([1]; Tillering, BBCH 23-25) | Grain yield ([1]; Tillering, BBCH 23-25) [t/ha] | Number of grains/spike ([1]; Tillering, BBCH 23-25) | Thousand grain weight ([1]; Tillering, BBCH 23-25) [g] | Number of spikes/m^2 ([1]; Tillering, BBCH 23-25) | grain yield compared to untreated control [2] [%] | plants survived [3] [%] | other results |
| --- | --- | --- | --- | --- | --- | --- | --- | --- | --- | --- | --- | --- | --- | --- | --- | --- | --- | --- | --- |
| O=C(NCCCl)Nc1cnns1 [Compound 65, 1-(2-Chloro-ethyl)-3-[1,2,3]thiadiazol-5-yl-urea] | 109.7 | 102.9 | 100.2 | 8.398 | 24.17 | 45.96 | 109.3 | 103.9 | 109.2* % | 109.2% | 99.0 | 5.0 | 8.362 | 24.42 | 45.35 | 764.8* | 109.0 |  | Number of spikes/m^2, % of control ([1]; Tillering, BBCH 23-25, listed as compound 65): 109.2% |
| COCCNC(=O)Nc1cnns1 [Compound 6, 1-(2-methoxy-ethyl)-3-[1,2,3]thiadiazol-5-yl-urea] | 103.6 | 99.5 | 102.0 | 7.927 | 23.37 | 46.77 | 111.3 | 103.3 | 110.3* % | 115.7* % | 102.9 | 5.3* | 8.517 | 24.27 | 47.18 | 772.4* | 107.3 | 82 | Number of spikes/m^2, % of control [1, 8]: 110.3%; Number of tillers, % of control [1, 8]: 115.7%; effect on saline stress-induced senescence (in words) [4]: significantly delays stress-induced senescence |
| O=C(NCc1ccco1)Nc1cnns1 [Compound 84, N-furfuryl-N′-1,2,3-thiadiazol-5-yl-urea] |  |  |  |  |  |  |  |  |  |  |  |  |  |  |  |  |  | 71 | WTK (weight of a thousand kernels) ([5]; control 4.35): 4.8 g; Seed yield ([5]; control 4.994): 6.038 t/ha; WTK, % of control ([5]; listed as Comp. 84): 110.3%; WTK, % of control ([6]; Year 2014, 25 μM foliar spray): 100.06%; Seed yield ([6]; Year 2014, 25 μM foliar spray, control 7.65): 8.02 t/ha; grains per ear ([6]; Year 2014, 25 μM foliar spray, control 23.5): 24.6; WTK ([6]; Year 2014, 25 μM foliar spray, control 45.85): 45.88 g; Seed yield ([6]; Year 2015, 5 μM foliar spray, control 7.01): 7.49 t/ha |
